{"source": "BindingDB's records for doi:10.7270/Q2J101NV", "about": "(Burnham Center For Chemical Genomics, 2010)", "data": [{"molecular_target": "T1, Alkaline phosphatase, tissue-nonspecific isozyme (Homo sapiens, UniProt P05186)", "T1 sequence (P05186 whole entry)": "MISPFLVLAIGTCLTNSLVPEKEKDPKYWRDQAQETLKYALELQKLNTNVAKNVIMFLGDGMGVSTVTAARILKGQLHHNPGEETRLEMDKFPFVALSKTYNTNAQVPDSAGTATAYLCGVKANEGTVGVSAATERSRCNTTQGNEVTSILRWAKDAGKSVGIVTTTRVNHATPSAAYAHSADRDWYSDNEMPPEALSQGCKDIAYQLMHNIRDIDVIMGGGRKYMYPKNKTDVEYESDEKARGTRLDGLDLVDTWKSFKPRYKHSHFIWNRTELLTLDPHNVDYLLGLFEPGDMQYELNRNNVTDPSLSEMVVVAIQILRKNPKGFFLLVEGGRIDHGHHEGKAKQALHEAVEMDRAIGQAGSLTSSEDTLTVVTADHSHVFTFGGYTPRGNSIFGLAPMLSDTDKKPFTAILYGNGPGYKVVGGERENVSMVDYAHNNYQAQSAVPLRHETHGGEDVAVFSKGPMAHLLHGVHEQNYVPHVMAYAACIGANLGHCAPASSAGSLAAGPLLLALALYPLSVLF", "assay": "TNAP enzyme activators, dose response, selectivity assay for mouse IAP activator project, biochemical, TNAP isozyme, mouse IAP uHTS hits (AID 488880)", "units": {"EC50": "µM"}, "values": [{"smiles": "CN(CCO)c1ccc(CN=Nc2ccc([N+](=O)[O-])cc2S(=O)(=O)Nc2ccccc2C(=O)O)cc1", "EC50": 19.7}, {"smiles": "O=C(NN=CC1=CC(=O)C(=O)CC1)NN=CC1=CC(=O)C(=O)CC1", "note": "[1,3-bis[[(Z)-(3-hydroxy-4-oxocyclohexa-2,5-dien-1-ylidene)methyl]amino]urea]", "EC50": 79.4}, {"smiles": "O=C1CC(=O)c2c(O)cc(O)c(O)c2C1=O", "note": "[4,5,7,8-tetrahydroxy-1,2-naphthoquinone]", "EC50": "> 100"}, {"smiles": "C#CCOCCOCCOCCNc1nc(N2CCN(C(=O)CCCCCCCCCCNC(=O)[C@@H](CCC(=O)O)n3cc(CCCCCN)nn3)CC2)nc(N2CCN(C(=O)CCCCCCCCCCNC(=O)[C@H]([C@@H](C)CC)n3cc(CCCCCN)nn3)CC2)n1", "note": "[KI-KE]", "EC50": "> 100"}, {"smiles": "Cc1cc(=O)[nH]c(N=NCc2ccc(O)c(O)c2)n1", "note": "[MLS001194906]", "EC50": 56.1}]}]}
